The values that follow are results of earlier work, collected in patent US20190367449A1, “PHENYLCREATINE, ITS USE AND METHOD FOR ITS PRODUCTION” (priority 2017, published 2019).

For this data set the following is noted: in vivo; cited from earlier work.

As to `CN(CC(=O)O)C(=N)N.Cl` [creatine hydrochloride], the “Relative bioavailability, higher than of creatine monohydrate” value is “about 50%”.
